Read-outs that look alike come from different tables or passages of the source.
Legend:
[1] = tested on: rat cortical neurons; experiment: Neurite network length of rat cortical primary neurons under high glucose; type: cell-based; conditions: 45 mmol/L glucose, 24 hours, MAP-2 staining
Method: Rat cortical neurons are cultured as described by Singer et al.. Briefly, pregnant female rats of 15 days gestation are killed by cervical dislocation (rats Wistar) and the foetuses are removed from the uterus. The cortex is then removed and placed in ice-cold medium of Leibovitz (L15) containing 2% of Penicillin 10.000 U/mL and Streptomycin 10 mg/mL and 1% of bovine serum albumin (BSA). Cortices are dissociated by trypsin for 20 min at 37° C. (0.05%). The reaction is stopped by the addition of Dulbecco's modified Eagle's medium (DMEM) containing DNasel grade II and 10% of foetal calf serum (FCS). Cells are then mechanically dissociated by 3 serial passages through a 10 mL pipette and centrifuged at 515×g for 10 min at +4° C. The supernatant is discarded and the pellet of cells is re-suspended in a defined culture medium consisting of Neurobasal supplemented with B27 (2%), L-glutamine (0.2 mM), 2% of PS solution and 10 ng/mL of BDNF. Viable cells are counted in a Neubauer cytometer using the trypan blue exclusion test. The cells are seeded at a density of 30 000 cells/well in 96 well-plates (wells were pre-coated with poly-L-lysine (10 μg/mL)) and were cultured at +37° C. in a humidified air (95%)/CO2 (5%) atmosphere.
After 10 days of culture, cells are incubated with drugs and their combinations. After 1 hour, medium glucose concentration is raised to 45 mmol/L glucose in defined medium without BDNF but together with tested compound. Cortical neurons are so cultured for 24 hours. BDNF (10 ng/mL) is used as a positive (neuroprotective) control. Three independent cultures were performed per condition, 6 wells per condition.
After 24 hours of culture in high glucose conditions, the supernatant is taken off and the cortical neurons are fixed by a cold solution of ethanol (95%) and acetic acid (5%) for 5 min. After permeabilization with 0.1% of saponin, cells are blocked for 2 hours with PBS containing 1% foetal calf serum. Then, cells are incubated with monoclonal antibody anti microtubule-associated-protein 2 (MAP-2; Sigma). This antibody stains specifically cell bodies and neurites of neurons. […] Nuclei of neurons are labelled by a fluorescent marker (Hoechst solution, Sigma).
Per well, 10 pictures are taken using InCell Analyzer™ 1000 (GE Healthcare) with 20× magnification. All pictures are taken in the same conditions. Analysis of the neurite network is done using Developer software (GE Healthcare) in order to assess the total length of neurite network.

[2] = tested on: DRG explants from STZ rats; experiment: Neurite outgrowth from dorsal root ganglia explants from STZ rats; type: cell-based, rat
[3] = tested on: sensory neurons and Schwann cells co-culture; experiment: Myelination in co-culture of sensory neurons and Schwann cells under high glucose (MBP expression); type: cell-based, rat; parameters: key: +: significant improvement in length of myelinated axons when compared to non-treated conditions as assessed by MBP expression; conditions: 45 mmol/L glucose, 50 μg/mL ascorbic acid, MBP staining, 5, 9, 10, 11 and 13 days
Method: A model of co-culture was used as an in vitro model of diabetes. This model of myelination consists in co-culturing sensory neurons and Schwann cells from Wistar rats dissociated dorsal root ganglia (DRG).
The aim of this study is to assess the effect of tested compounds and compound combinations on myelination process under high glucose conditions mimicking diabetes. The effect of the tested compounds on myelination, either in high glucose concentration or not, is assessed by evaluating Myelin Basic Protein (MBP) expression in presence of ascorbic acid.
Fifteen days gestation pregnant female rats are killed by cervical dislocation. The embryos are removed from the uterus and are at similar foetal stage of development.
Rat DRG are cultured as previously described by Cosgaya et al. and Rangaraju et al..
Each embryo is dispatched on numerating petri dish (35 mm of diameter). DRG of each embryo is collected, placed in ice-cold medium of Leibovitz (L15, Invitrogen). At the end of the dissection, DRG of TGM are pooled and dissociated by trypsinization (trypsin EDTA, 0.05%; Invitrogen) for 20 min at 37° C. The reaction is stopped by addition of DMEM containing 10% of foetal bovine serum (FBS) in the presence of DNAase I (Roche). The suspension is triturated with a 10 mL pipette. Cells are then centrifuged at 350×g for 10 min at room temperature. The pellet of dissociated cells is resuspended in neurobasal medium (Invitrogen) containing 2% of B27 (Invitrogen), 1% of penicillin-streptomycin (Invitrogen), 1% de L glutamine and 50 ng/mL NGF (Sigma). This medium is the neuronal medium. Viable cells are counted in a Neubauer cytometer using the trypan blue exclusion test (Sigma) and seeded on the basis of 10 000 cells per well in 96 well-plates (Greiner) treated with poly-L-lysine. The plates are maintained at 37° C. in a humidified incubator, in an atmosphere of air (95%)-CO2 (5%). Half of the standard neuronal culture medium is changed every other day. The cultures are maintained in standard neurobasal medium for 7 days to allow Schwann cells to populate the sensory neuron neurites. On day 7, the cultures are fed with standard neuronal medium supplemented or not with 50 μg/mL ascorbic acid in order to initiate basal lamina formation and myelination.
On Day 7, the Following Tested Compounds (Alone or in Combination) Listed in Table 5 are added in the medium with 50 μg/mL ascorbic acid. Basal glucose in culture medium is 25 mmol/L, which is necessary for DRG neuron survival. To produce a hyperglycemic insult, 20 mmol/L additional glucose (total 45 mmol/L glucose) is added to the media for the period specified.
The tested compounds are incubated for 5 different times: 5, 9, 10, 11 and 13 days.
Three separate and independent cultures of DRG are done. These conditions are assessed in presence of ascorbic acid, 6 wells per condition. The solution ready to use of all tested compounds are extemporaneously prepared from a stock solution, stored at −20° C. This solution is prepared once a week. Half of the standard neuronal medium supplemented with tested compounds, ascorbic acid (each at the concentration 1×) and glucose are changed every other day.
After 5, 9, 10, 11 and 13 days of incubation, cells are fixed by a cold solution of ethanol (95%) and acetic acid (5%) for 10 min. The cells are permeabilized and blocked with PBS containing 0.1% saponin and 10% goat serum for 15 min. Then, the cells are incubated with a specific marker of myelin: polyclonal antibody anti-myelin basic protein (MBP) antibody (Sigma 118K0431).
Nuclei of neurons are labelled by a fluorescent marker (Hoechst solution, SIGMA ref B1155).
Per well, 20 pictures are taken using InCell Analyzer™ 1000 (GE Healthcare) with 20× magnification. All images are taken in the same conditions. Analysis of total length of myelinated axons was automatically done (length and area around axons) using
Developer software (GE Healthcare). All values will be expressed as mean+/−s.e.mean. […]

[4] = spinal cord explants from diabetic rats cultured 24-48-72 hours with compound

With CN/C(=N/CCSCc1nc[nH]c1C)NC#N [cimetidine] the “Protection of neurite network, rat cortical primary cell culture” value [1] was “+”, the “protecting DRG from apoptosis and/or improving neurite outgrowth” value (from here on “protecting DRG”) [2] was “particularly efficient” and the “Protection of neurite network, DRG explants from STZ rats” value (shortened to “Protection … from STZ rats”) [2, 4] was “+”. For the same compound, the Myelinated axon length [3] was “+”.
In the case of CN(C)CC[C@@H](c1ccc(Br)cc1)c1ccccn1 [dexbrompheniramine], the “Protection of neurite network, rat cortical primary cell culture” value [1] is reported as “+”, the “protecting DRG” value [2] is reported as “particularly efficient” and the “Protection … from STZ rats” value [2, 4] is reported as “+”. The Myelinated axon length [3] was “+”.
With Cc1ccc(C(=O)C(C)CN2CCCCC2)cc1 (stereo not drawn) [tolperisone] the “Protection of neurite network, rat cortical primary cell culture” value [1] was “+”, the “protecting DRG” value [2] was “particularly efficient” and the “Protection … from STZ rats” value [2, 4] was “+”. For the same compound, the Myelinated axon length [3] was “+”.
With Cc1cccc(Nc2ccncc2S(=O)(=O)NC(=O)NC(C)C)c1 [torasemide] the “Protection of neurite network, rat cortical primary cell culture” value [1] was “+”, the “protecting DRG” value [2] was “particularly efficient” and the “Protection … from STZ rats” value [2, 4] was “+”. For the same compound, the Myelinated axon length [3] was “+”.
For CCN(CC)C(=O)N1CCN(C)CC1 [diethylcarbamazine], the “Protection of neurite network, rat cortical primary cell culture” value [1] was “+”, the “protecting DRG” value [2] was “particularly efficient” and the “Protection … from STZ rats” value [2, 4] was “+”. The Myelinated axon length [3] was “+”.
For C[C@@H]1CC(=O)NN=C1c1ccc(NN=C(C#N)C#N)cc1 [levosimendan], the “Protection of neurite network, rat cortical primary cell culture” value [1] was “+”, the “protecting DRG” value [2] was “particularly efficient” and the “Protection … from STZ rats” value [2, 4] was “+”. For the same compound, the Myelinated axon length [3] was “+”.
In the case of C1COC(NC(C2CC2)C2CC2)=N1 [rilmenidine], the “Protection of neurite network, rat cortical primary cell culture” value [1] is reported as “+”, the “protecting DRG” value [2] is reported as “particularly efficient” and the “Protection … from STZ rats” value [2, 4] is reported as “+”. For the same compound, the Myelinated axon length [3] was “+”.
For CCN(CC)CCOCCOC(=O)C1(c2ccccc2)CCCC1 [carbetapentane], the “Protection of neurite network, rat cortical primary cell culture” value [1] was “+”, the “protecting DRG” value [2] was “particularly efficient” and the “Protection … from STZ rats” value [2, 4] was “+”. For the same compound, the Myelinated axon length [3] was “+”.
In the case of Nc1nc(N)c2nc(-c3ccccc3)c(N)nc2n1 [triamterene], the “Protection of neurite network, rat cortical primary cell culture” value [1] is reported as “+”, the “protecting DRG” value [2] is reported as “particularly efficient” and the “Protection … from STZ rats” value [2, 4] is reported as “+”. The Myelinated axon length [3] was “+”.
CC(C(O)c1ccc(O)cc1)N1CCC(Cc2ccccc2)CC1 (stereo not drawn) [ifenprodil] was tested, and the “Protection of neurite network, rat cortical primary cell culture” value [1] was “+”, the “protecting DRG” value [2] was “particularly efficient” and the “Protection … from STZ rats” value [2, 4] was “+”. For the same compound, the Myelinated axon length [3] was “+”.
NCC(CC(=O)O)c1ccc(Cl)cc1 (stereo not drawn) [baclofen] was tested, and the “Protection of neurite network, rat cortical primary cell culture” value [1] was “+”, the “Protection … from STZ rats” value [2] was “+” and the “protecting DRG” value [2] was “particularly efficient”. For the same compound, the Myelinated axon length [3] was “+”.
With Cc1cccc(C)c1OCC(C)N (stereo not drawn) [mexiletine] the “Protection of neurite network, rat cortical primary cell culture” value [1] was “+”, the “protecting DRG” value [2] was “particularly efficient” and the “Protection … from STZ rats” value [2, 4] was “+”. The Myelinated axon length [3] was “+”.
With CO[C@]12C[C@@H](COC(=O)c3cncc(Br)c3)CN(C)[C@@H]1Cc1cn(C)c3cccc2c13 [nicergoline] the “Protection of neurite network, rat cortical primary cell culture” value [1] was “+”, the “protecting DRG” value [2] was “particularly efficient” and the “Protection … from STZ rats” value [2, 4] was “+”. For the same compound, the Myelinated axon length [3] was “+”.
For CC(=O)NCCCS(=O)(=O)O [acamprosate], the “Protection of neurite network, rat cortical primary cell culture” value [1] was “+”, the “protecting DRG” value [2] was “particularly efficient” and the “Protection … from STZ rats” value [2, 4] was “+”. The Myelinated axon length [3] was “+”.
With C[C@@H](NCCCc1cccc(C(F)(F)F)c1)c1cccc2ccccc12 [cinacalcet] the “Protection of neurite network, rat cortical primary cell culture” value [1] was “+”, the “protecting DRG” value [2] was “particularly efficient” and the “Protection … from STZ rats” value [2, 4] was “+”. For the same compound, the Myelinated axon length [3] was “+”.

Reference: patent US20170049777A1, “COMPOSITIONS, METHODS AND USES FOR THE TREATMENT OF DIABETIC NEUROPATHIES” (Pharnext, priority 2014, published 2017)
